# Measured values from the supplement of paper PMC10011410.
# ± gives the standard deviation of the averaged measurements.
# Experiments:
# Conditions in all cases: 24 h
# U-2 OS [1] = experiment: intracellular GSH:GSSG ratio (calculated); higher = more reduced glutathione pool
# Protocol: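 Intracellular glutathione in U-2 OS cells after 24 h compound treatment at 5, 10 and 20 uM (some at 40 and 80 uM). Total glutathione and GSSG were measured with the GSH/GSSG-Glo kit, and the GSH:GSSG ratio was calculated. Mean of five technical replicate plates.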
# U-2 OS [2] = experiment: total intracellular glutathione (GSH + GSSG) relative to DMSO (% of control); higher = more glutathione
# Protocol: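 Total intracellular glutathione (GSH + GSSG) in U-2 OS cells by GSH/GSSG-Glo after 24 h compound treatment at 5, 10 and 20 uM (some at 40 and 80 uM), as percent of DMSO control. Five technical replicate plates, averaged.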
# U-2 OS [3] = experiment: cell viability (CellTiter-Glo) relative to DMSO (% of control); higher = more viable
# Protocol: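 Cell viability of U-2 OS cells by CellTiter-Glo after 24 h compound treatment at 5, 10 and 20 uM (some at 40 and 80 uM), measured in parallel with the glutathione assay, as percent of DMSO control. Five technical replicate plates, averaged.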
# U-2 OS [4] = experiment: relative cell count vs DMSO (cell painting) (fraction of DMSO control); higher = more cells remaining (less cytotoxic)
# Method in brief: (§1)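 Images taken on an Opera Phenix of U-2 OS cells stained with MitoTracker, concanavalin A, phalloidin, wheat germ agglutinin, Hoechst and SYTO 14 were processed in CellProfiler, with features normalized to DMSO cells on the same plate. The cells, about 1,500 per well in 384-well plates, had been treated by pin tool for 24 h at 37 °C, usually at six 2-fold concentrations from 20 μM to 625 nM. The activity score measures Mahalanobis distance from DMSO wells, and cell count is expressed relative to DMSO wells. Each value averages four replicate plates.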
# U-2 OS [5] = experiment: cell painting activity score (Mahalanobis distance from DMSO wells); higher = stronger morphological phenotype
# Method in brief: as §1
SMILES,intracellular GSH:GSSG ratio (U-2 OS [1]; 5 µM),intracellular GSH:GSSG ratio (U-2 OS [1]; 10 µM),intracellular GSH:GSSG ratio (U-2 OS [1]; 20 µM),total intracellular glutathione (U-2 OS [2]; 5 µM),total intracellular glutathione (U-2 OS [2]; 10 µM),total intracellular glutathione (U-2 OS [2]; 20 µM),cell viability (U-2 OS [3]; 5 µM),cell viability (U-2 OS [3]; 10 µM),cell viability (U-2 OS [3]; 20 µM),relative cell count (U-2 OS [4]; 0.625 µM),relative cell count (U-2 OS [4]; 1.25 µM),relative cell count (U-2 OS [4]; 2.5 µM),relative cell count (U-2 OS [4]; 5 µM),relative cell count (U-2 OS [4]; 10 µM),relative cell count (U-2 OS [4]; 20 µM),cell painting activity score (U-2 OS [5]; 0.625 µM),cell painting activity score (U-2 OS [5]; 1.25 µM),cell painting activity score (U-2 OS [5]; 2.5 µM),cell painting activity score (U-2 OS [5]; 5 µM),cell painting activity score (U-2 OS [5]; 10 µM),cell painting activity score (U-2 OS [5]; 20 µM),total intracellular glutathione (U-2 OS [2]; 40 µM),total intracellular glutathione (U-2 OS [2]; 80 µM),cell viability (U-2 OS [3]; 40 µM),cell viability (U-2 OS [3]; 80 µM),relative cell count (U-2 OS [4]; 40 µM),relative cell count (U-2 OS [4]; 80 µM),cell painting activity score (U-2 OS [5]; 40 µM),cell painting activity score (U-2 OS [5]; 80 µM)
C=CC(=O)N1CCN(c2ncnc3c(F)c(-c4c(O)cccc4F)c(Cl)cc23)CC1,18.9,16.4,11.6,105 ± 3.9,104 ± 3.3,102 ± 3.2,91.3 ± 4.4,89.2 ± 6.2,100 ± 6.9,0.691,0.719,0.571,0.555,0.531,0.516,10.3,8.82,11.4,11,11.8,16,,,,,,,,
O=S1(=O)CC(Sc2cccs2)c2ccccc21 (stereo unspecified),25.2,24.8,30,115 ± 4.9,107 ± 9.4,120 ± 8.6,103 ± 5.5,100 ± 5.5,104 ± 4.5,1.02,0.974,0.948,1,0.984,0.61,3.43,3.86,4.15,3.78,3.12,10.7,,,,,,,,
C=CC(=O)Nc1cccc(Nc2nc(Nc3ccc(Oc4ccnc(C(=O)NC)c4)cc3)ncc2F)c1,17.7,5.85,2.15,64.2 ± 2,55.9 ± 4.7,5.78 ± 1.6,75.8 ± 3.4,59.5 ± 6.1,1.84 ± 1.1,1,0.96,0.987,0.953,0.961,0.93,4.92,4.2,6.51,4.99,8.06,9.39,,,,,,,,
O=[N+]([O-])c1ccc(-c2nnc(SC3=CS(=O)(=O)c4ccccc43)o2)cc1,10.4,3.4,3.08,119 ± 3.7,38.4 ± 3.2,46.6 ± 3.2,84.5 ± 5.8,33.5 ± 5.2,49.4 ± 2.6,0.934,0.893,0.773,0.394,0.225,0.29,6.12,8.55,13.1,17.1,14.6,17.5,,,,,,,,
S=C(Nc1ccccc1)Nc1nc(-c2ccccc2)[n+](-c2ccccc2)s1,27.8,18.7,29,116 ± 14,96.7 ± 11,130 ± 9.9,91.8 ± 2.3,106 ± 3.2,97.5 ± 6.9,0.907,0.951,0.994,0.926,0.955,0.94,3.57,4.45,5.25,3.52,6.94,3.81,,,,,,,,
O=C(CSC1CC(=O)N(c2cccc(Cl)c2)C1=O)Nc1ccc(Br)cc1 (stereo unspecified),28,31.9,26.5,94.6 ± 4.8,93.9 ± 4,95.2 ± 5.6,105 ± 8.8,99.5 ± 4.2,107 ± 5.8,1.13,1.13,1.06,1.06,1.1,1.12,3.18,3.28,3.09,4.23,3.79,3.43,,,,,,,,
COC1=CC=C(S(=O)(O/N=C2C=C(C(C(C)=C\2)=O)C)=O)C=C1,4.85,2.61,,59.9 ± 4,41.1 ± 5.9,6.59 ± 2.2,31.2 ± 1.5,15.9 ± 2,9.58 ± 10,1.01,0.93,0.9,0.718,0.17,0.237,4.25,8.9,10.5,12,16.6,24.6,0.79 ± 0.15,0.604 ± 0.13,0.28 ± 0.061,0.124 ± 0.018,0.146,0.0922,22.8,20.4
CCCC[S@](=N)(=O)CC[C@H](N)C(=O)O,,,,19.6 ± 2,16.8 ± 2.1,14.1 ± 1.3,101 ± 5.1,99.5 ± 3.6,95 ± 4.3,0.986,1.04,0.992,1.04,1.01,1.06,3.99,4.5,4.98,4.52,4,4.46,11 ± 1.6,10.7 ± 1,101 ± 6.9,106 ± 4,,,,
